Assay results taken from patent publication US20220054493A1, “INHIBITORS OF NGAL PROTEIN” (INSERM (INSTITUT NATIONAL DE LA SANTÉ ET DE LA RECHERCHE …, priority 2019, published 2022).

How the values were obtained:
[1] = molecular target: T1, NGAL (Homo sapiens, UniProt P80188); assay: NGAL-induced profibrotic marker synthesis in human cardiac fibroblasts (western blot); assay type: cell-based; details: FIGS. 1 and 2 panel C
T1 construct: purchased R&D Systems
Protocol: Cell Culture Human cardiac fibroblasts (primary culture) were obtained from Promocell and maintained in medium (Fibroblast Media 3). Cells were cultured according to the manufacturer's instructions and used between passages 5 and 7. Cells were stimulated with aldosterone (10^-8 M, Sigma) or recombinant hNGAL (500 ng/mL, R&D Systems) for 24 h for protein analysis. Mouse kidney fibroblasts (MKF), were isolated from Wild Type (WT) mice. Briefly, mice 7 to 8 weeks were sacrificed by cervical dislocation and kidneys were cleaned and rinsed in cold DPBS (Dulbecco's Phosphate-Buffered Saline). The renal cortex was minced and incubated in Dulbecco's modified eagle medium/Nutrient mixture F-12 (DMEM/F12, Sigma) containing 1 mg/mL collagenase A (Roche) during 25 minutes at 37° C. […]
Total protein aliquots of 20 μg were prepared from cardiac homogenates and electrophoresed on SDS polyacrylamide gels and transferred to Hybond-c Extra nitrocellulose membranes (Amersham Biosciences). […] After densitometric analyses, optical density values were expressed as arbitrary units. Results are expressed as an n-fold increase over the values of the control group in densitometric arbitrary units.
The inhibitory activity of the compounds was evaluated on the NGAL-induced IL6 secretion (NGAL 10 ng/ml) in human cardiac fibroblasts. […]

[2] = test system: Myocardial Infarction Model; assay: Cardiac function (echocardiography, LV hemodynamics) in the myocardial infarction model; assay type: in vivo, mice; details: MI model, 100 mg/kg/day in food admix, three months
Protocol: 8-12 weeks old mice (WT C57B16 for GP1 compound experiments) or 8-12 weeks old mice with genetic inactivation of lcn2 (as described in Martinez-martinez et al., Hypertension 2017, December; 70(6):1148-1156) have been used. LV diastolic and systolic diameters were measured in anesthetized (isofluorane 1.5%) mice, according to the American Society of Echocardiography's leading-edge method (using Vivid 7 echograph a 14 Mhz probe). In addition, LV outflow velocity was measured by pulsed waves, and CO was calculated as follows: CO=aortic VTI×[πx·(LV outflow diameter/2)^2]×heart rate, where VTI is velocity-time integral.
LV hemodynamic was assessed as described previously.
Mice were anesthetized (chloral 320 mg·kg−1, IP) and the carotid artery cannulated with a pressure-volume catheter (SPR839, Millar-Instruments, USA) and the catheter was advanced into the LV. Pressure-volume loops were obtained at baseline and during loading by gently occluding the abdominal aorta. LV end-systolic and end-diastolic pressures, dP/dtmax/min, LV relaxation constant tau and were measured/calculated with IOX software (EMKA, France).

[3] = test system: isolated hepatocytes from swiss mice; assay: Hepatotoxicity, MTT colorimetric assay; assay type: cell-based
Protocol: Two specific toxicity assays have been performed to assess hepatoxicity and cardiotoxicity. Hepatotoxicity was evaluated in isolated hepatocytes from swiss mice and determined by the MTT colorimetric assay. Cardiotoxicity was evaluated using the commercially available Predictor hERG fluorescence polarization kit (Thermo Fisher Scientific). Several ADME assays have been carried out on the compounds generated throughout the project. The following experiments were undertaken: Stability in human microsomes, binding to human plasma protein, and CYP3A4 inhibition assay (Vivid CYP3A4 assay, Thermo Fisher Scientific). Physico-chemical properties were also assessed such as aqueous solubility and chemical stability.

[4] = test system: CKD Mouse Model; assay: Renal fibrosis in the CKD mouse model (sirius red staining); assay type: in vivo, mice; details: two months administration; FIG. 14 A-B
Protocol: (§1) Chronic kidney disease (CKD) was induced by subtotal nephrectomy (Nx) in eight-weeks-old FVB male mice (25-26 g). All surgeries were performed under ketamine/xylazine anaesthesia. Briefly, the left kidney was exposed, and the upper and lower poles were tied with a poly-glycolic acid suture line. The peritoneum and skin were then sutured, and the animals were returned to their individual cages. After one week of recovery, the second kidney was removed. Removal of the second kidney represents TO. Sham mice were subjected to the same surgical procedures but neither renal poles nor the right kidney were removed. Mice were monitored for any sign of distress, and those observed to be experiencing severe, unrelievable pain were euthanized. Renal failure was assessed by the measure of plasma creatinine and urea with an automatic analyser (Konelab 20i; Thermo Fisher Scientific, Vernon Hills, Ill.) at weeks 4 and 10 post-Nx.

[5] = test system: CKD Mouse Model; assay: Renal profibrotic and inflammatory gene expression in the CKD mouse model; assay type: in vivo, mice; details: kidney, two months administration
Protocol: as §1
Frozen tissues (kidneys, heart) were homogenized in TRIzol (Life Technologies, 15596018) using FastPrep beads (MP-Bio, 6913-100). cDNAs were generated using the Superscript II reverse transcriptase kit (Invitrogen, 18064022), and qPCR was performed as previously described. Briefly, transcript levels were analysed in a CFX396 apparatus (Biorad). The reactions were performed in duplicate for each sample using the IQ SYBR Green supermix Kit (Biorad, 170-8882). […]

T1 sequence (P80188 21-198): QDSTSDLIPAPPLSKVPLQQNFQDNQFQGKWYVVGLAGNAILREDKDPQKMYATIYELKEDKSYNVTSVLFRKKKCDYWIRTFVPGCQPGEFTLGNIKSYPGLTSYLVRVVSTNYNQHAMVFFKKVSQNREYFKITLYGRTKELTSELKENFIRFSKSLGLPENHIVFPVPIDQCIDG

CC(=O)c1cccc(S(=O)(=O)NCc2ccccc2-n2cccn2)c1 [GPZ614741]
NGAL-induced profibrotic marker (col1, col III, fibronectin, Gal3, OPN) synthesis [1]: inhibited
fractional shortening (LV Frac. Short.) ([2]; FIG. 7 panel A): significant increase
stroke volume ([2]; FIG. 7 panel D): increased
cardiac output ([2]; FIG. 7 panel E): increased
LV diastolic diameter (LV Diast. Diam.) ([2]; FIG. 7 panels B-C): slight although statistical non-significant decrease
LV systolic diameter (LV Syst. Diam.) ([2]; FIG. 7 panels B-C): slight although statistical non-significant decrease
LV end-systolic pressure (LVESP) ([2]; FIG. 8 panel A): not modified
LV dP/dtmax ([2]; FIG. 8 panel B): significant increase
LV end-diastolic pressure (LVEDP) ([2]; FIG. 8 panel C): tended to be reduced
LV dP/dtmin ([2]; FIG. 8 panel D): increased
LV relaxation constant Tau ([2]; FIG. 8 panel E): decreased
hepatotoxicity (toxicity for hepatocytes) ([3]; MTT up to 0.1 mM): no toxicity
Hepatotoxicity ([3]; cell wrapped over two lines: No tox up / 100 uM): No tox up
interstitial fibrosis associated to CKD (sirius red staining) [4]: strong antifibrotic effect
profibrotic target genes (collagen1, fibronectin, alphaSMA) ([5]; FIG. 15A): blunted the increase
inflammatory markers (IL6, MCP1, TNFalpha) ([5]; FIG. 15B): no effects
